# Source: publication PMC9465710, “Identification of a BAZ2A-Bromodomain Hit Compound by Fragment Growing” (ACS Medicinal Chemistry Letters, 2022)
# Where “and” joins values, the source holds several entries; their conditions need not be identical. Equal values may be shown once.
# Columns and labels:
# BAZ2A bromodomain [1] = molecular target: T1, BAZ2A bromodomain (Homo sapiens, UniProt Q9UIF9); experiment: AlphaScreen competition binding assay (BAZ2A bromodomain binding to acetylated peptide)
# T1 construct: made in house
# T1 sequence (Q9UIF9 1793-1897 limits assumed): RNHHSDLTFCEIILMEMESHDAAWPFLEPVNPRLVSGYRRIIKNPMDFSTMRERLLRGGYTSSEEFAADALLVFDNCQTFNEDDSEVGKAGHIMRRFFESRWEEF
# Method: The 36 selected molecules were tested by AlphaScreen at single doses in duplicate. Six molecules (compounds 8, 9, 11, 14, 18, and 25) decreased binding of BAZ2A bromodomain to the acetylated peptide by at least 50% when tested at 500 μM. […]
# AlphaScreen assay was conducted as detailed in [11]. […]
# BAZ2B bromodomain = molecular target: T2, BAZ2B bromodomain (Homo sapiens, UniProt Q9UIF8); experiment: AlphaScreen competition binding assay on the BAZ2B bromodomain; conditions: AlphaScreen dose-response, Figure S6
# T2 sequence (Q9UIF8 2060-2164 limits assumed): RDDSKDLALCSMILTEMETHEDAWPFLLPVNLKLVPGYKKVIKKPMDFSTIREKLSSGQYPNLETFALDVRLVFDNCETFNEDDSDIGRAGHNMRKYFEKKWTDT
# Method: (§1) Trigonal crystals were obtained by co-crystallization as described in the same work. Monoclinic crystals were obtained by co-crystallization with compound 4 of reference; a back-soaking procedure was then applied by incubating the crystal in the crystallization solution without inhibitors for 36-48 hours, and subsequently exposing it to the new ligand of interest for 12-24 hours.
# (§2) Diffraction data were collected at the Elettra Synchrotron Light Source (Trieste, Italy), XRD1 and XRD2 beamlines, and at the ESRF (Grenoble, France), ID30-A1 beamline. Data were processed and structures were solved as described elsewhere. BAZ2A/cmp9 data have been corrected for diffraction anisotropy with STARANISO (https://staraniso.globalphasing.org/cgi-bin/staraniso.cgi).
# (§3) Data collection and refinement statistics are reported in Suppl. Tables 3-6. Electron densities (2Fo-Fc polder OMIT map) for the bound inhibitors are shown in Suppl. Fig. 7.
# (§4) AlphaScreen assay was conducted as detailed in [11]. All experiments were performed at least in […]
# (§5) Isothermal Titration Calorimetry
# (§6) ITC experiments were performed using an MicroCal PEAQ-IT C microcalorimeter (Malvern Panalytical , UK) at 25°C with a stirring speed of 750 rpm in 20mM Tris pH 7. 8, 0. 2 M NaCl, 0. 2 mM TCEP and 0. 25% DMSO. For each experiment, one 0. […]
# BAZ2A bromodomain [2] = molecular target: T1, BAZ2A bromodomain; experiment: Isothermal titration calorimetry (ITC); type: binding; conditions: 25°C, 0.25% DMSO, racemic mixture, read-out: equilibrium dissociation constant (KD)
# Method: as §1, §2, §3, §4, §5, §6
smiles,measurement,setting,value
CCc1c(-c2csc(N3CCNCC3C(=O)NCCc3ccno3)n2)[nH]c(C)c1C(C)=O (stereo not drawn) [Compound 104],ligand efficiency (LE),BAZ2A bromodomain [1],0.24 kcal/mol per heavy atom
same,lipophilic ligand efficiency (LLE),BAZ2A bromodomain [1],4.0
same,IC50,BAZ2A bromodomain [1]; AlphaScreen dose-response,4 ± 0.2 µM
same,increase in potency with respect to 47,BAZ2A bromodomain [1]; from AlphaScreen IC50,8 fold
same,IC50,BAZ2B bromodomain,33.5 µM
same,Kd,BAZ2A bromodomain [2],7.1 µM and 7 µM
